Source: article PMC8187206 (Pharmacological Reports, 2020)

What was measured:
[1] = cited from earlier work
[2] = Plasma pharmacokinetics of sorafenib and sorafenib N-oxide after single oral sorafenib in diabetic and healthy rats (HPLC-UV, non-compartmental analysis); format: in vivo, Wistar-strain rats; conditions: single oral sorafenib 100 mg/kg
Experimental: The experimental protocol for this study was reviewed and approved by the Local Ethics Committee. All procedures were performed in accordance with European Union regulations concerning the handling and use of laboratory animals. The study was conducted following the principles of the 3Rs (Replacement, Reduction and Refinement). Adult male Wistar-strain rats (weight 400–445 g) were used in the study. The animals were maintained under standard breeding conditions with a 12 h light–12 h dark cycle at constant room temperature (23 ± 2 °C), relative humidity (55 ± 10%) and given ad libitum access to feed and water. After acclimatisation the rats were randomly assigned into two groups: the diabetic group (DG) (n = 8) and the healthy group (HG) (n = 8).
(§1) DG rats were fed a high-fat diet (Labofeed B, 60% fat; Morawski, Poland) for a period of 4 weeks to induce insulin resistance. After 2 weeks of dietary manipulation the animals were intraperitoneally injected with STZ (35 mg/kg body weight in 1000 μL of sterile citrate buffer, pH 4.2). Citrate buffer was injected as a vehicle in HG. The high-fat diet was continued for subsequent 2 weeks in the DG. The rats in the HG were fed with standard diet (Labofeed B, 8% fat) and water ad libitum. The rats with the blood glucose level ≥ 250 mg/dL were considered diabetic and qualified for this study. The percentage reduction of the glucose levels in the rats was calculated using the following formula: %Reductionglucose=(V0-Vt)·100/V0, where V0 glucose concentration at baseline and Vt glucose concentration at the time of maximum reduction.
(§2) After injecting streptozotocin 10% glucose solution was additionally administered for 24 h to prevent hypoglycaemia. […] The drug was dissolved in 1 mL 10% DMSO and administered orally by means of a gastric feeding tube. 0.1 mL blood samples were collected from rats by cutting a piece of their tails. The samples were collected at the following time points: 0, 0.5, 1, 1.5, 2, 3, 4, 5, 6, 7, 8, 10, 12, 24, 30, 48, 72, 96 h. Each time on blood collection glycaemia was measured.
The validation was performed according to the guidelines of the European Medicines Agency (EMA) concerning validation of bioanalytical methods. Chromatographic analysis was conducted on a Alliance® system with 2695 Separation Module and a Dual Lambda (λ) absorbance detector (Waters Corporation®, USA). Data acquisition was performed using Empower software v. 1154. Separation was carried out on Symmetry® C8 column (250 mm × 4.6 mm, 5.0 µm particle size, Waters Corporation®, USA). The column temperature was maintained at 25 °C. The mobile phase consisted of ammonium acetate 0.1 M pH = 3.4 (adjusted with glacial acetic acid) (solvent A) and acetonitrile (solvent B). The following gradient was used: the percentage A was decreased from 60 to 29%, while at the same time over 21 min percentage B increased linearly from 40 to 71%. The UV detection wavelength was set at 265 nm, and the injection volume was 20 µL. The volume of the analyzed rat plasma was 25 µL. The samples were determined using liquid–liquid extraction.
The maximum plasma concentration (Cmax) and the time to reach the maximum plasma concentration (tmax) were obtained directly from the concentration—time data. The elimination rate constant (kel) was estimated from the slope of the terminal linear segment of the log mean concentration-time plot using the automatic best-fitting option in WinNonlin 8.1. The elimination half-life (t1/2kel) was calculated from ln2/kel. The area under the concentration-time curve from zero to the time of the last concentration measured (AUC0−t) was calculated by a linear trapezoidal rule and the residual area under the curve (AUCres) was estimated by extrapolation from the last concentration measured (Clast) to infinity using Clast/kel ratio. The area under curve from zero to infinity (AUC0−∞) was computed as a sum of AUC0−t and AUCres.

[3] = Effect of a single sorafenib dose on blood glucose level (glycaemia); format: in vivo, Wistar-strain rats; conditions: control group (healthy rats), single oral sorafenib 100 mg/kg
Experimental: as §1, §2

[4] = test system: streptozotocin-induced diabetic rats; assay: as above; format: in vivo, Wistar-strain rats; conditions: DG group (diabetic rats), single oral sorafenib 100 mg/kg
Experimental: as §1, §2

patients = conditions: multiple administration of the TKI; cited from earlier work
[5] = diabetic animals (streptozotocin-induced for sunitinib and lapatinib, alloxan-induced rabbits for erlotinib); cited from earlier work
[6] = increase in diabetic versus healthy rats

| SMILES | AUC0−t higher in the DG when compared to the HG [2, 6] | AUC0−∞ higher in the DG when compared to the HG [2, 6] | Cmax higher in the DG when compared to the HG [2, 6] | Cmax in diabetic animals [5] | total exposure in diabetic animals [5] | further results |
| --- | --- | --- | --- | --- | --- | --- |
| CNC(=O)c1cc(Oc2ccc(NC(=O)Nc3ccc(Cl)c(C(F)(F)F)c3)cc2)cc[n+]1[O-] [Sorafenib N-oxide, sorafenib N-oxide] | 112.55% | 91.87% | 119.57% |  |  | share of circulating substances at steady state [1]: 9–16%; AUMC0-t increase in the DG [2, 6]: 134.31%; AUMC0-∞ increase in the DG [2, 6]: 85.33% |
| CNC(=O)c1cc(Oc2ccc(NC(=O)Nc3ccc(Cl)c(C(F)(F)F)c3)cc2)ccn1 [Sorafenib] | 66.4% | 56.0% | 88.7% |  |  | Cl/F decreased in diabetic animals ([2]; decrease in diabetic versus healthy rats): 40%; glucose levels [3]: did not decrease; time of maximum reduction of glycaemia after the sorafenib administration [4]: 1.5 to 11 h; maximum reduction of glycaemia ([4]; (V0-Vt)·100/V0): 11.2–50.8%; effect on blood glucose after multiple administration (patients): hypoglycaemic effect |
| C#Cc1cccc(Nc2ncnc3cc(OCCOC)c(OCCOC)cc23)c1 [erlotinib] |  |  |  | significantly increased | significantly increased |  |
| CS(=O)(=O)CCNCc1ccc(-c2ccc3ncnc(Nc4ccc(OCc5cccc(F)c5)c(Cl)c4)c3c2)o1 [lapatinib] |  |  |  | significantly increased | significantly increased |  |
| CCN(CC)CCNC(=O)c1c(C)[nH]c(/C=C2\C(=O)Nc3ccc(F)cc32)c1C [sunitinib] |  |  |  | significantly increased | significantly increased |  |
